# Where two headings read alike, the source gives them in different places.
# Columns and labels:
# Assay type in all cases: cell-based
# [1] = test system: pERK in COLO829 cells (BRAF^V600E, heterozygous); test: Phospho-ERK AlphaScreen assay, pERK inhibition in COLO829; conditions: Homo sapiens, COLO-829, 1 h, read-out: pERK inhibition IC50 COLO829
# Experimental: (§1) Phospho-ERK AlphaScreen® assay: The degree of ERK phosphorylation was determined using an AlphaScreen® assay where an increase in ERK1/2 phosphorylation at Thr202/Tyr204 brought the donor and acceptor AlphaScreen® beads into close proximity, generating a signal for quantification. To determine the effects of compound treatment on phosphorylation of ERK1/2, cells were plated in a 96-well plate and treated with an 8-point titration of compound for one hour at 37° C. before lysis. To detect pERK, cell lysates were incubated with streptavidin-coated AlphaScreen® donor beads, anti-mouse IgG AlphaScreen® acceptor beads, a biotinylated anti-ERK1/2 rabbit antibody, and a mouse antibody that recognizes ERK1/2 only when it is phosphorylated on Thr202 and Tyr204. The biotinylated ERK1/2 antibody binds to both the streptavidin-coated AlphaScreen® donor beads and to ERK1/2 (regardless of its phosphorylation state), and the phospho-ERK1/2 antibody binds to the acceptor beads and to ERK1/2 that is phosphorylated at Thr202/Tyr204. An increase in ERK1/2 phosphorylation at Thr202/Tyr204 brings the donor and acceptor AlphaScreen® beads into close proximity, generating a signal that can be quantified on an EnVision reader (Perkin Elmer).
# (§2) Using AlphaScreen® technology, the ability of Formula I to affect the phosphorylation of ERK and MEK in the cells was measured quantitatively. Following treatment with compound, the cells were lysed, and a sample of the lysate was transferred to an assay plate. The lysate was mixed with antibodies directed against total ERK/MEK, antibodies that recognize specific phosphorylation sites on ERK/MEK, AlphaScreen® anti-mouse IgG Acceptor beads, and Streptavidin Donor beads. Upon excitation of the donor beads with laser light at 680 nm, singlet oxygen was produced. This singlet oxygen was rapidly quenched, unless the AlphaScreen® Acceptor beads were in close proximity, in which case a proximity signal can be measured at 580 nm. In the presence of phosphorylated ERK/MEK, there is a very strong proximity signal.
# (§3) 1. One day before the assay, 50,000 cells were plated in each well of a 96-well tissue-culture-treated plate (Corning #3610) in a 50 μL volume. Cells were incubated at 37° C. overnight.
# (§4) 2. Compounds were diluted in DMSO to 500× final concentration. Each compound was plated as an 8-point titration, using 1:3 dilutions in DMSO. The maximum concentration was about 5 mM.
# (§5) 3. 1 μl of compound was added to each well of a 96-well polypropylene plate (Corning #3363). For A375, COLO829, SK-MEL-3, HCT116, and HT-29, the high control was DMSO, and the low control was 10 μM PLX4720 (CAS No. 918505-84-7). For B9 and IPC-298, the high control was 3.33 μM PLX4720, and the low control was DMSO. 4. 249 μL growth media was added to compounds, diluting them 250-fold. 5. […] The compound was incubated with the cells at 37° C. for one hour. 6. The media was aspirated, and the cells were lysed in 50 μL of ice-cold 1× Cell Lysis buffer. The plates were incubated on ice for 5 minutes to allow complete lysis of the cells. 7. A mixture of biotinylated donor antibody, acceptor antibody, and anti-mouse IgG AlphaScreen® acceptor beads in 1× AlphaLISA immunoassay buffer was prepared. 8. 5 μL of lysate was transferred to a 384-well assay plate (Perkin Elmer #6005359). 5 μL of the antibody and acceptor bead mixture was added. The plates were spinned.
# [2] = test system: COLO829 cells; test: Growth inhibition assay (CellTiter-Glo), COLO829; conditions: Homo sapiens
# Experimental: Growth inhibition assay: Cells were plated into a 96-well plate at a density of 3000 cells per well and allowed to adhere overnight. Compounds were dissolved in DMSO, diluted 3-fold to create an 8-point titration and added to cells. After a 72-hour incubation, cell viability was examined using CellTiter-Glo® (Promega).
# In order to determine the effects of Formula I on proliferation, a growth assay was established using melanoma cells (A375 and COLO829) and colorectal carcinoma cells (COLO205, HT-29) which each express the BRAFV600E mutation. To show selectivity over wild-type BRAF, several BRAF wild-type cell lines (K562, NOMO-1, MV-4-11 and ML-2) were also examined in the growth assay. The growth assay implemented the Promega CellTiter-Glo Luminescent Cell viability assay, which gives a luminescent readout that is proportional to the amount of ATP present in a cell sample. As ATP levels directly correlate with the number of viable cells, the luminescent signal can be used to determine the potency of Formula I to block the proliferation of the cell lines of interest.
# 1. 3,000 cells were plated in each well for cell lines A375, COLO205, COLO829, HT-29, and SK-MEL-3. 25,000 cells were plated in each well for cell lines K562, ML-2, MV-4-11, and
# NOMO-1 of a 96-well tissue-culture-treated plate (Corning #3610) in a 50 μL volume. Cells were incubated overnight at 37° C.
# 2. Each test compound was plated as an 8-point titration, using 1:3 dilutions in DMSO. The maximum concentration was about 5 mM. Dilute DMSO and test compound of Formula I 1:250 in growth media.
# 3. 50 μL of the diluted compound was transferred into 50 μL cells, for a 500-fold final compound dilution (maximum concentration is typically 10 μM and DMSO concentration is 0.2%). The cells were incubated with DMSO/compound for 3 days at 37° C. in 5% CO2.
# 4. Cell Titer-Glo Luminescent Assay Reagent was brought to room temperature and reconstituted as directed in the product manual. The cell cultures were also brought to room temperature for about 20-30 minutes. […] Luminescence was measured on a Tecan Safire plate reader. […]
# [3] = test system: pERK in HCT116 cells (KRAS^G13D); test: Phospho-ERK AlphaScreen assay, pERK activation in HCT116; conditions: Homo sapiens, HCT-116
# Experimental: as §1, §2, §3, §4, §5
# [4] = COLO829, BRAF^V600E heterozygous, one hour treatment
# [5] = COLO-829, 72-hour incubation, read-out: In vitro growth inhibition IC50, COLO829
# [6] = HCT116, KRAS^G13D, concentration increasing pERK to 50% compared to positive control 10 μM PLX4720, read-out: pERK activation EC50 HCT116
# [7] = read-out: pERK activation Mean EC50, HCT116
"IC50 [1, 4] [nM]","IC50 [2, 5] [nM]","EC50 [3, 6] [nM]",Compound,"EC50 [3, 7] [nM]",IC50 [1] [nM],"IC50 ([2]; COLO-829, 72 h, Table 4, melanoma, BRAF V600E/WT, RAS WT, 3 days, read-out: Growth IC50 Colo829) [nM]"
2.1,530,> 200000,"CCN(C)S(=O)(=O)Nc1ccc(F)c(C(=O)c2c[nH]c3ncc(-c4cnc(C5CC5)nc4)cc23)c1F [Formula II, 5-(2-cyclopropylpyrimidin-5-yl)-3-[3-[[ethyl(methyl)sulfamoyl]amino]-2,6-difluoro-benzoyl]-1H-pyrrolo[2,3-b]pyridine]",,,
41,690,340,"CCCS(=O)(=O)Nc1ccc(F)c(C(=O)c2c[nH]c3ncc(-c4ccc(Cl)cc4)cc23)c1F [Vemurafenib, vemurafenib, reference compound]",286,,

Compound,"IC50 [1, 4] [nM]","IC50 [2, 5] [nM]","EC50 [3, 6] [nM]","EC50 [3, 7] [nM]",IC50 [1] [nM],"IC50 ([2]; COLO-829, 72 h, Table 4, melanoma, BRAF V600E/WT, RAS WT, 3 days, read-out: Growth IC50 Colo829) [nM]"
"O=C(c1c(F)ccc(NS(=O)(=O)N2CC[C@@H](F)C2)c1F)c1c[nH]c2ncc(-c3cnc(C4CC4)nc3)cc12 [Formula I, (3R)—N-[3-[5-(2-cyclopropylpyrimidin-5-yl)-1H-pyrrolo[2,3-b]pyridine-3-carbonyl]-2,4-difluorophenyl]-3-fluoropyrrolidine-1-sulfonamide]",,,> 200000,10000,18,100

# Source: patent US9814714B2, “Kinase modulation, and indications therefor” (Plexxikon Inc., priority 2015, dated 2017)
